Assay results from patent publication US5512671A, “Ether lipid-nucleoside covalent conjugates” (Wake Forest University, priority 1995, dated 1996).

Key:
[1] = in vitro; conditions: human, cem-ss cells
[2] = system: HIV-1; test: Infectious HIV-1 production (PFU) in persistently infected monocyte/macrophage (U1) cells; type: cell-based
Excerpt: (§1) See C. Perno et al., J. Exp. Med. 168, 1111 (1984).

[3] = system: HIV-1; test: Plaque assay: inhibition of HIV-1 syncytial plaque formation in CEM-SS cells (Example 15); type: cell-based, human immunodeficiency virus type 1 (HIV-1); conditions: for IC50: Human immunodeficiency virus 1, CEM-SS, 120 h, read-out: Inhibitory Concentration50 for HIV-1 Plaque Formation; for Differential Selectivity: ratio IC50 for cytotoxicity / IC50 for HIV1 plaque formation
Excerpt: Anti-HIV1 Activity of Lipid-Nucleoside Conjugates. […] In brief, CEM-SS cell monolayers were infected with HIV-1. […] Plaques were counted at five days after infection. In this assay HIV-1 syncytial plaques are seen as large, multicellular foci (10 to 25 nuclei/syncytium) that appear either brown and granular or clear. Silnce the number of HIV-1 syncytial plaques correlates with reverse transcriptase (RT) and p24 core antigen activity in the HIV-1 infected cell overlay fluids, the syncytial plaque assay can be used to quantify the amount of infectious virus. […] The activity of p24 core antigen induced by HIV-1 infection of CEM-SS cells was measured spectrophotometrically using the commercial Coulter EIA.

[4] = system: HIV-1; test: HIV-1 induced RT in persistently infected monocyte/macrophage (U1) cells; type: cell-based; conditions: control 79,328 DPM = 100
Excerpt: as §1

[5] = system: HIV-1; test: HIV-1 plaque formation in CEM-SS cells (Example 23); type: cell-based; conditions: for IC50: read-out: IC50 HIV-1 Plaque Formation; for D.S. (Differential selectivity): average IC50 for CEMSS cell growth / average IC50 for HIV1 plaque formation
Description: Anti-HIV1 Activity of Lipid-Nucleoside Conjugates. CEM-SS cells were seeded (50,000 cells/ml RPMI-1640 growth medium) as a monolayer in 96-well dishes, innoculated with 50 to 100 plaque forming units of HIV-1 and overlaid with serial dilutions of lipid-nucleoside conjugate in RPHI-1640 growth medium. Plaques were counted after five days incubation at 37° C. to determine the 50% inhibitory concentration.

[6] = system: HIV-1; test: HIV-1 induced p24 core antigen synthesis in persistently infected monocyte/macrophage (U1) cells; type: cell-based; conditions: control 94 = 100
Excerpt: as §1

[7] = system: CEM-SS cells; test: CEM-SS cell growth, 3H-Tdr pulse label DNA synthesis (Example 23); type: cell-based; conditions: Homo sapiens, 48 hours at 37° C., then 3H-Tdr 8 hours
[8] = system: CEM-SS cells; test: Cell cytotoxicity (Example 15, Table 1); conditions: conjugate IC50 53.8 μM vs AZT IC50 5.6 μM
[9] = Human immunodeficiency virus 1, 120 h, CEM-SS cells, five days incubation at 37° C.

| Structure (SMILES) | CC50 [1] [nM] | IC50 [3] [nM] | Differential Selectivity [3] | further results |
| --- | --- | --- | --- | --- |
| Cc1cn([C@H]2C[C@H](N=[N+]=[N-])[C@@H](CO)O2)c(=O)[nH]c1=O [AZT, 3'-azido-3'-deoxythymidine] | 5600 | 4 ± 1 |  | inhibition of infectious HIV-1 production [2]: 13%; PFU, Percent of Control ([2]; control 750 PFU = 100): 87% of Control; RT DPM, Percent of Control [4]: 90% of Control; IC50 ([5]; Human immunodeficiency virus 1, CEM-SS, 120 h): 4 nM; p24 core Ag, Percent of Control [6]: 101% of Control |
| CCCCCCCCCCCCCCCCOCC(COP(=O)([O-])OC(CC(=O)OC[C@H]1O[C@@H](n2cc(C)c(=O)[nH]c2=O)C[C@@H]1N=[N+]=[N-])C[N+](C)(C)C)OCC (stereo partly drawn) [Compound AA, 3'-Azido-3'-deoxythymidine-5'-butyrate-γ-N,N,N-trimethyl-ammonium-β-(1-phospho-2-ethoxy-3-hexadecyloxypropane)] |  |  |  | IC50 [5, 9]: 4 nM; D.S. (Differential selectivity) [5]: 3375 |
| CCCCCCCCCCCCCCCCOCC(COP(=O)(O)OP(=O)(O)OCC1OC(n2cc(C)c(=O)[nH]c2=O)CC1N=[N+]=[N-])OCC [A, 3'-Azido-3'-deoxythymidine-5'-diphosphate-D,L-3-hexadecyloxy-2-ethoxypropane] |  |  |  | IC50 [7]: > 100000 nM |
| CCCCCCCCCCCCCCCCOCC(COP(=O)(O)OC[C@H]1O[C@@H](n2cc(C)c(=O)[nH]c2=O)C[C@@H]1N=[N+]=[N-])OCC (stereo partly drawn) [Compound B, 3'-azido-3'deoxythymidine-5'-monophosphate-D,L-3-hexadecyloxy-2-ethoxypropane] | 35000 ± 2100 | 30 ± 20 | 1167 |  |
| CCCCCCCCCCCCCCCCSCC(COP(=O)(O)OC[C@H]1O[C@@H](n2cc(C)c(=O)[nH]c2=O)C[C@@H]1N=[N+]=[N-])OC (stereo partly drawn) [Compound C, 3'azido-3'-deoxythymidine-5'-monophosphate-D,L-3-hexadecylthio-2-methoxypropane] | 29200 ± 5700 | 20 ± 10 | 1465 |  |
| CCCCCCCCCCCCCCCCCC(=O)NCC(COP(=O)([O-])OC(CC(=O)OC[C@H]1O[C@@H](n2cc(C)c(=O)[nH]c2=O)C[C@@H]1N=[N+]=[N-])C[N+](C)(C)C)OCC (stereo partly drawn) [BB, 3'-Azido-3-deoxythymidine-5'-butyrate-γ-N,N,N-trimethyl-ammonium-β-(1-phospho-2-ethoxy-3octadecanamidopropane)] |  |  |  | IC50 [5, 9]: 40 nM; D.S. (Differential selectivity) [5]: 342 |
| CCCCCCCCCCCCCCCCCC(=O)NCC(COP(=O)(O)OC[C@@H]1CC[C@H](n2cnc3c(=O)[nH]cnc32)O1)OCC (stereo partly drawn) [Compound D, 2,3,-dideoxyinosine-5'-monophosphate-D,L-3-octadecanamido-2-ethoxypropane] | > 100000 | 1560 ± 800 | > 64 |  |
| CCCCCCCCCCCCCCCCOCC(CP(=O)(O)OC[C@H]1O[C@@H](n2cc(C)c(=O)[nH]c2=O)C[C@@H]1N=[N+]=[N-])OC (stereo partly drawn) [Compound E, 3'-Azido-3'-deoxythymidine-5'-phosphono-D,L-3-hexadecyloxy-2-methoxypropane] | 25200 ± 1100 | 20 ± 10 | 1260 |  |
| CCCCCCCCCCCCCCCCCC(=O)NCC(COP(=O)(O)OC[C@H]1O[C@@H](n2cc(C)c(=O)[nH]c2=O)C[C@@H]1N=[N+]=[N-])OCC (some centres unmarked) [A] | 53800 ± 7800 | 30 ± 20 |  |  |
| CCCCCCCCCCCCCCCCCC(=O)NCC(COP(=O)(O)OP(=O)(O)OC[C@H]1O[C@@H](n2cc(C)c(=O)[nH]c2=O)C[C@@H]1N=[N+]=[N-])OCC (stereo partly drawn) [Compound H, 3'-Azido-3-deoxythymidine-5'-diphosphate-D,L-3-octadecanamido-2-ethoxypropane] |  |  |  | IC50 [7]: 6600 nM; IC50 [5, 9]: 11 nM; D.S. (Differential selectivity) [5]: 600 |
| CCCCCCCCCCCCCCCCCC(=O)NCC(COP(=O)(O)OC[C@H]1O[C@@H](n2cc(C)c(=O)[nH]c2=O)C[C@@H]1N=[N+]=[N-])OCC (stereo partly drawn) [Compound A, 3,-azido-3'-deoxythymidine-5'-monophosphate-D,L-3-octadecanamido-2-ethoxypropane] |  |  |  | decrease in cell cytotoxicity compared to AZT [8]: about ten-fold |
| O=c1[nH]cnc2c1ncn2[C@H]1CC[C@@H](CO)O1 [DDI, dideoxyinosine, reference compound] | > 100000 | 1700 |  |  |
